In patent publication US20260337153A1, “IONIZABLE AMINE LIPIDS” (Intellia Therapeutics, Inc., priority 2023, published 2026):
Several values for one entry are separate records, joined by “and”; a condition that tells them apart may be missing. Equal values may be shown once.

Assay: LNP average particle size and polydispersity by dynamic light scattering
Assay type: physicochemical
Details: sgRNA:mRNA 1:2
Description: Dynamic Light Scattering (“DLS”) is used to characterize the polydispersity index (“pdi” or “PDI”) and size of the LNPs of the present disclosure. DLS measures the scattering of light that results from subjecting a sample to a light source. PDI, as determined from DLS measurements, represents the distribution of particle size (around the mean particle size) in a population, with a perfectly uniform population having a PDI of zero.
LNP compositions are analyzed for average particle size, polydispersity index (pdi), total RNA content, encapsulation efficiency of RNA, and zeta potential. LNP compositions may be further characterized by lipid analysis, AF4-MALS, NTA, and/or cryo-EM.
Average particle size and polydispersity are measured by dynamic light scattering (DLS) using a Malvern Zetasizer DLS instrument. LNP samples were diluted with PBS buffer prior to being measured by DLS. Z-average diameter (“Z-avg”) which is an intensity-based measurement of average particle size was reported along with number average diameter (“number mean”) and PDI. A Malvern Zetasizer instrument is also used to measure the zeta potential of the LNP. Samples are diluted 1:17 (50 μL into 800 μL) in 0.1×PBS, pH 7.4 prior to measurement.
In vivo editing efficiency for materials delivered with formulations including various amine lipid (or ionizable lipid) compounds in Experiments 1 through 14 as described in Tables 3 and 4 was assessed. Editing was measured using G000534 (SEQ ID NO: 5) which targets the rat TTR gene. Lipids described above were assessed for efficacy through in vivo editing experiments. LNPs were formulated at a 1:2 w/w ratio of sgRNA (SEQ ID NO: 5) and Cas9 mRNA (SEQ ID NO: 3). In Experiments 1 through 13, lipid components of the LNP are formulated in a molar ratio of 50% ionizable lipid, 38% cholesterol, 9% DSPC, and 3% PEG2K-DMG. In Experiment 14, lipid components of the LNP are formulated in a molar ratio of 50% ionizable lipid, 38% cholesterol, 9% DSPC, and 3% C13 Ether. The final LNPs used in different in vivo editing experiments were characterized to determine the encapsulation efficiency (% E), polydispersity index (PDI), and average particle size (Z-avg and number mean) according to the analytical methods provided above. The pKa values of each of the following ionizable lipids were also measured to be in the range of about 5.8 to about 7.6.
In vivo editing efficiency for materials delivered with formulations including various combinations of amine lipid (or ionizable lipid) and PEG lipid compounds was assessed as described in Tables 5 and 6. Editing was measured using G000534 (SEQ ID NO: 5) which targets the rat TTR gene. Lipids described above were assessed for efficacy through in vivo editing experiments. LNPs were formulated at a 1:2 w/w ratio of sgRNA (SEQ ID NO: 5) and Cas9 mRNA (SEQ ID NO:3). Lipid components of the LNP are formulated in a molar ratio of 50% ionizable lipid, 38% cholesterol, 9% DSPC, and 3% of various PEG lipids (e.g., PEG2K-DMG, C13 Ether, C14 Ether). The final LNPs used in different in vivo editing experiments were characterized to determine the encapsulation efficiency (% E), polydispersity index (PDI), and average particle size (Z-avg and number mean) according to the analytical methods provided above. The pKa values of each of the following ionizable lipids were also measured to be in the range of about 5.8 to about 7.6.
In vivo editing efficiency for materials delivered with formulations including various amine lipid (or ionizable lipid) compounds as described in Tables 7 and 8 was assessed. Editing was measured using G000534 (SEQ ID NO: 5) which targets the rat TTR gene. Lipids described above were assessed for efficacy through in vivo editing experiments. LNPs were formulated at a 1:2 w/w ratio of sgRNA (SEQ ID NO: 5) and Cas9 mRNA (SEQ ID NO: 3). Lipid components of the LNP were formulated in a molar ratio of 50% ionizable lipid, 38% cholesterol, 9% DSPC, and 3% C13 Ether. […]

[1] = Table 3, Experiments 1-13, LNP 50% ionizable lipid, 38% cholesterol, 9% DSPC, 3% PEG2K-DMG
[2] = LNP with 50% ionizable lipid, 38% cholesterol, 9% DSPC, 3% C13 Ether (LNP #1, Compound 53: 3% PEG2K-DMG instead)
[3] = Table 3, Experiment 14, LNP with 3% C13 Ether

Row | Structure (SMILES) | Number mean [1] | PDI [1] | Z-avg [1] | other results
1 | CCCCCCCCOC(CCC(=O)OCC(COC(=O)CCC(OCCCCCCCC)OCCCCCCCC)COC(=O)OCCCN(CC)CC)OCCCCCCCC [Compound 1, 2-((((3-(diethylamino)propoxy)carbonyl)oxy)methyl)propane-1,3-diyl bis(4,4-bis(octyloxy)butanoate)] | 70 nm | 0.06 | 80 nm | 
2 | CCCCC/C=C\C/C=C\CCCCCCCC(=O)OCC(CCCCCCCCC(=O)OCC(CCCC)CCCCCC)COC(=O)OCCCN(CC)CC (stereo not drawn) [Compound 7, 11-((2-butyloctyl)oxy)-2-((((3-(diethylamino)propoxy)carbonyl)oxy)methyl)-11-oxoundecyl (9Z,12Z)-octadeca-9,12-dienoate] | 68 nm | 0.03 | 74 nm | 
3 | CCCCC/C=C\C/C=C\CCCCCCCC(=O)OCC(CCCCCCCCC(=O)OC(CCCCCCCC)CCCCCCCC)COC(=O)NCCN(CC)CC (stereo not drawn) [Compound 10, 2-((((2-(diethylamino)ethyl)carbamoyl)oxy)methyl)-11-(heptadecan-9-yloxy)-11-oxoundecyl (9Z,12Z)-octadeca-9,12-dienoate] | 83 nm | 0.04 | 90 nm | 
4 | CCCCC/C=C\C/C=C\CCCCCCCC(=O)OCC(CCCCC(=O)OC(CCCC)CCCC)COC(=O)NCCN(CC)CC (stereo not drawn) [Compound 12, 2-((((2-(diethylamino)ethyl)carbamoyl)oxy)methyl)-7-(nonan-5-yloxy)-7-oxoheptyl (9Z,12Z)-octadeca-9,12-dienoate] | 101 nm | 0.03 | 108 nm | 
5 | CCCCC/C=C\C/C=C\CCCCCCCC(=O)OCC(CCCCC(=O)OC(CCCC)CCCC)COC(=O)OCCCN(C)CC (stereo not drawn) [Compound 13, 2-((((3-(ethyl(methyl)amino)propoxy)carbonyl)oxy)methyl)-7-(nonan-5-yloxy)-7-oxoheptyl (9Z,12Z)-octadeca-9,12-dienoate] | 87 nm | 0.04 | 99 nm | 
6 | CCCCC/C=C\C/C=C\CCCCCCCC(=O)OCC(CCCCC(=O)OC(CCCC)CCCC)COC(=O)OCCCN(CC)CC (stereo not drawn) [Compound 14, 2-((((3-(diethylamino)propoxy)carbonyl)oxy)methyl)-7-(nonan-5-yloxy)-7-oxoheptyl (9Z,12Z)-octadeca-9,12-dienoate] | 107 nm | 0.01 | 114 nm | 
7 | CCCCC/C=C\C/C=C\CCCCCCCC(=O)OCC(CCCCC(=O)OC(CCCCCC)CCCCCC)COC(=O)OCCCN(CC)CC (stereo not drawn) [Compound 17, 2-((((3-(diethylamino)propoxy)carbonyl)oxy)methyl)-7-oxo-7-(tridecan-7-yloxy)heptyl (9Z,12Z)-octadeca-9,12-dienoate] | 67 nm | 0.03 | 74 nm | 
8 | CCCCC/C=C\C/C=C\CCCCCCCC(=O)OCC(CCCCCCC(=O)OC(CCCCCC)CCCCCC)COC(=O)OCCCN(CC)CC (stereo not drawn) [Compound 18, 2-((((3-(diethylamino)propoxy)carbonyl)oxy)methyl)-9-oxo-9-(tridecan-7-yloxy)nonyl (9Z,12Z)-octadeca-9,12-dienoate] | 69 nm | 0.01 | 75 nm | 
9 | CCCCC/C=C\C/C=C\CCCCCCCC(=O)OCC(CCCCCCC(=O)OC(CCCC)CCCC)COC(=O)OCCCN(CC)CC (stereo not drawn) [Compound 20, 2-((((3-(diethylamino)propoxy)carbonyl)oxy)methyl)-9-(nonan-5-yloxy)-9-oxononyl (9Z,12Z)-octadeca-9,12-dienoate] | 68 nm | 0.05 | 84 nm | 

Second part, led by results:

Row | Number mean [1] | PDI [1] | Z-avg [1] | Structure (SMILES) | other results
10 | 68 nm and 75 nm | 0.014 and 0.02 | 75 nm and 79 nm | CCCCCCCCC(CCCCCCCC)OC(=O)CCCC(=O)OCC(COC(=O)CCCC(=O)OC(CCCCCCCC)CCCCCCCC)COC(=O)NCCN(CC)CC [Compound 6, O,O′-(2-((((2-(diethylamino)ethyl)carbamoyl)oxy)methyl)propane-1,3-diyl) di(heptadecan-9-yl) diglutarate] | Number mean (average particle size) [2]: 67 nm; PDI (polydispersity index) [2]: 0.002; Z-avg (average particle size) [2]: 81 nm; Number mean [3]: 68 nm; PDI [3]: 0.02; Z-avg [3]: 73 nm; Number mean (Table 5, PEG lipid C13 Ether): 72 nm; PDI (Table 5, PEG lipid C13 Ether): 0.01; Z-avg (Table 5, PEG lipid C13 Ether): 79 nm; Number mean (Table 5, PEG lipid C14 Ether): 81 nm; PDI (Table 5, PEG lipid C14 Ether): 0.01; Z-avg (Table 5, PEG lipid C14 Ether): 86 nm; Number mean (Table 5, PEG lipid PEG2K-DMG): 69 nm; PDI (Table 5, PEG lipid PEG2K-DMG): 0.04; Z-avg (Table 5, PEG lipid PEG2K-DMG): 78 nm; Number mean (Table 7, LNP with 3% C13 Ether): 71 nm; PDI (Table 7, LNP with 3% C13 Ether): 0.01; Z-avg (Table 7, LNP with 3% C13 Ether): 78 nm
11 | 64 nm | 0.03 | 69 nm | CCCCCCCCC(CCCCCCCC)OC(=O)CCCCCCC(COC(=O)CCCC(=O)OC(CCCCCCCC)CCCCCCCC)COC(=O)OCCCN(CC)CC (stereo not drawn) [Compound 8, 2-((((3-(diethylamino)propoxy)carbonyl)oxy)methyl)-9-(heptadecan-9-yloxy)-9-oxononyl heptadecan-9-yl glutarate] | 
12 | 61 nm and 65 nm and 62 nm | 0.03 | 68 nm and 73 nm | CCCCC/C=C\C/C=C\CCCCCCCC(=O)OCC(CCCCCCCCC(=O)OC(CCCCCCCC)CCCCCCCC)COC(=O)OCCCN(CC)CC (stereo not drawn) [Compound 9, 2-((((3-(diethylamino)propoxy)carbonyl)oxy)methyl)-11-(heptadecan-9-yloxy)-11-oxoundecyl (9Z,12Z)-octadeca-9,12-dienoate] | 
13 | 70 nm | 0.02 | 78 nm | CCCCC/C=C\C/C=C\CCCCCCCC(=O)OCC(CCCCCCCCC(=O)OC(CCCCCCCC)CCCCCCCC)COC(=O)OCCCN(C)CC (stereo not drawn) [Compound 11, 2-((((3-(ethyl(methyl)amino)propoxy)carbonyl)oxy)methyl)-11-(heptadecan-9-yloxy)-11-oxoundecyl (9Z,12Z)-octadeca-9,12-dienoate] | 
14 | 58 nm | 0.06 | 66 nm | CCCCC/C=C\C/C=C\CCCCCCCC(=O)OCC(CCCCC(=O)OC(CCCCCCCC)CCCCCCCC)COC(=O)OCCCN(CC)CC (stereo not drawn) [Compound 15, 2-((((3-(diethylamino)propoxy)carbonyl)oxy)methyl)-7-(heptadecan-9-yloxy)-7-oxoheptyl (9Z,12Z)-octadeca-9,12-dienoate] | 
15 | 62 nm | 0.03 | 68 nm | CCCCC/C=C\C/C=C\CCCCCCCC(=O)OCC(CCCCCCC(=O)OC(CCCCCCCC)CCCCCCCC)COC(=O)OCCCN(CC)CC (stereo not drawn) [Compound 16, 2-((((3-(diethylamino)propoxy)carbonyl)oxy)methyl)-9-(heptadecan-9-yloxy)-9-oxononyl (9Z,12Z)-octadeca-9,12-dienoate] | 
16 | 66 nm | 0.02 | 71 nm | CCCCC/C=C\C/C=C\CCCCCCCC(=O)OCC(CCCCCCCCC(=O)OC(CCCCCC)CCCCCC)COC(=O)OCCCN(CC)CC (stereo not drawn) [Compound 19, 2-((((3-(diethylamino)propoxy)carbonyl)oxy)methyl)-11-oxo-11-(tridecan-7-yloxy)undecyl (9Z,12Z)-octadeca-9,12-dienoate] | 
